Source: PMC8016998, “Identification of potential therapeutic antimicrobial peptides against Acinetobacter baumannii in a mouse model of pneumonia” (Scientific Reports, 2021)
Read-outs that look alike come from different tables or passages of the source. Values belong to the substance of their own block, whether it stands above or below them. No end group written: not given here.

Assays:
[1] = test system: A. baumannii laboratory strains (ATCC strains 17,978 and 19,606); type: cell-based, Acinetobacter baumannii; conditions: disc diffusion; activity = inhibition zone diameter ≥ 10 mm
Procedure: The antimicrobial activities of 58 AMPs were screened against A. baumannii laboratory strains (ATCC strains 17,978 and 19,606) in vitro using a disc diffusion assay (Supplementary Table 1).
The antimicrobial activity against Acinetobacter baumannii were determined by a inhibition zone
assay, performed as previous described1. The AMPs with an inhibition zone diameter ≥ 10 mm were
determined as the AMPs with antimicrobial activity.

LD50 (preliminary data) = type: in vivo; conditions: intratracheal administration
MDRAB clinical strains = type: cell-based, Acinetobacter baumannii
Procedure: (§1) MBC were determined by extending the MIC procedure in sterilized 96-well polypropylene microtiter plates according to the broth microdilution guidelines of the Clinical and Laboratory Standards Institute with some modification[47]. […] In addition, 10 µL was drawn from each well with no visible turbidity onto LB agar plates and incubated for 24 h at 37 °C. The lowest concentration showing no visible growth on agar subculture was used as the MBC value. All experiments were performed in triplicate.

[2] = test system: MDRAB clinical strain AE6; type: cell-based, Acinetobacter baumannii
Procedure: as §1

[3] = test system: MDRAB clinical strain AF12; type: cell-based, Acinetobacter baumannii
Procedure: as §1

[4] = test system: MDRAB clinical strain U80; type: cell-based, Acinetobacter baumannii
Procedure: as §1

[5] = test system: MDRAB clinical strain AK29; type: cell-based, Acinetobacter baumannii
[6] = test system: Acinetobacter baumannii 17,978; type: cell-based;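 further: CLSI broth microdilution in 96-well polypropylene plates, MBC taken as lowest concentration giving no growth when clear wells were subcultured on LB agar for 24 h at 37 °C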
Procedure: as §1

[7] = test system: MDRAB clinical strain AE5; type: cell-based, Acinetobacter baumannii
Procedure: as §1

[8] = test system: MDRAB clinical strain O59; type: cell-based, Acinetobacter baumannii
Procedure: as §1

[9] = test system: MDRAB clinical strain U95; type: cell-based, Acinetobacter baumannii
Procedure: as §1

[10] = test system: MDRAB clinical strain AN10; type: cell-based, Acinetobacter baumannii
[11] = test system: MDRAB clinical strain AO80; type: cell-based, Acinetobacter baumannii
Procedure: as §1

[12] = test system: MDRAB clinical strain W11; type: cell-based, Acinetobacter baumannii
Procedure: as §1

[13] = test system: MDRAB clinical strain J49; type: cell-based, Acinetobacter baumannii
Procedure: as §1

[14] = test system: MDRAB clinical strain D29; type: cell-based, Acinetobacter baumannii
Procedure: as §1

[15] = test system: Acinetobacter baumannii 19,606; type: cell-based
Procedure: as §1

[16] = test system: MDRAB clinical strain AF93; type: cell-based, Acinetobacter baumannii
Procedure: as §1

[17] = test system: MDRAB clinical strain Y92; type: cell-based, Acinetobacter baumannii
Procedure: as §1

MDRAB clinical strain K2 = type: cell-based, Acinetobacter baumannii
Procedure: as §1

[18] = test system: MDRAB clinical strain AG51; type: cell-based, Acinetobacter baumannii
Procedure: as §1

[19] = test system: MDRAB clinical strain AK61; type: cell-based, Acinetobacter baumannii
[20] = test system: MDRAB clinical strain AL87; type: cell-based, Acinetobacter baumannii
[21] = test system: MDRAB clinical strain AZ93; type: cell-based, Acinetobacter baumannii
Procedure: as §1

[22] = test system: MDRAB clinical strain AF11; type: cell-based, Acinetobacter baumannii
Procedure: as §1

[23] = test system: MDRAB clinical strain AS40; type: cell-based, Acinetobacter baumannii
[24] = test system: MDRAB clinical strain L87; type: cell-based, Acinetobacter baumannii
Procedure: as §1

[25] = 10 µL from wells without turbidity onto LB agar, 24 h at 37 °C, triplicate

Substance: AKKVFKRLG IGKFLHSAKKF-NH2 [HPMA, antimicrobial peptide]
- antimicrobial activity against Acinetobacter baumannii (inhibition zone assay) [1]: without antimicrobial activity (The antimicrobial peptides without antimicrobial activity)

Substance: AKKVFKRLGIGAVLKVLTTG [HPME, antimicrobial peptide]
- antimicrobial activity against Acinetobacter baumannii (inhibition zone assay) [1]: without antimicrobial activity (The antimicrobial peptides without antimicrobial activity)

Substance: FIHHIIGGLFSAGKAIHRLIRRRRR [TP4]
- LD50 (LD50 (preliminary data)): 10 to 20 mg/kg

Substance: GLLRKGGEKIGEKLKKIGQKIKNFFQKLVPQPEQ [CRAMP, antimicrobial peptide]
- antimicrobial activity against Acinetobacter baumannii (inhibition zone assay) [1]: without antimicrobial activity (The antimicrobial peptides without antimicrobial activity)

- MIC (MDRAB clinical strains; 24 h): 8 to 16 µg/mL
- MIC ([2]; 24 h): 8 µg/mL
- MIC ([3]; 24 h): 8 µg/mL
- MIC ([4]; 24 h): 16 µg/mL
- MIC ([5]; 24 h): 8 µg/mL
- MIC ([6]; 17,978, 24 h): 32 µg/mL
- MIC ([7]; 24 h): 16 µg/mL
- MIC ([8]; 24 h): 16 µg/mL
- MIC ([9]; 24 h): 16 µg/mL
- MIC ([10]; 24 h): 8 µg/mL
- MIC ([11]; 24 h): 8 µg/mL
- MIC ([12]; 24 h): 16 µg/mL
- MIC ([13]; 24 h): 8 µg/mL
- MIC ([14]; 24 h): 16 µg/mL
- MIC ([15]; 19,606, 24 h): 16 µg/mL
- MIC ([16]; 24 h): 8 µg/mL
- MIC ([17]; 24 h): 8 µg/mL
- MIC (MDRAB clinical strain K2; 24 h): 16 µg/mL
- MIC ([18]; 24 h): 8 µg/mL
- MIC ([19]; 24 h): 8 µg/mL
- MIC ([20]; 24 h): 8 µg/mL
- MIC ([21]; 24 h): 8 µg/mL
- MIC ([22]; 24 h): 8 µg/mL
- MIC ([23]; 24 h): 8 µg/mL
- MIC ([24]; 24 h): 16 µg/mL
Substance: GYNYAKKLANLAKKFANALW-NH2 [GW-H1a]
- MBC (MDRAB clinical strains; 24 h): 8 to 32 µg/mL
- MBC ([2]; 24 h): 16 µg/mL
- MBC ([3]; 24 h): 16 µg/mL
- MBC ([4]; 24 h): 32 µg/mL
- MBC ([5]; 24 h): 8 µg/mL
- MBC ([6]; 17,978, 24 h): 32 µg/mL
- MBC ([7]; 24 h): 16 µg/mL
- MBC ([8]; 24 h): 32 µg/mL
- MBC ([9]; 24 h): 32 µg/mL
- MBC ([10]; 24 h): 8 µg/mL
- MBC ([11]; 24 h): 8 µg/mL
- MBC ([12]; 24 h): 16 µg/mL
- MBC ([13]; 24 h): 8 µg/mL
- MBC ([14]; 24 h): 32 µg/mL
- MBC ([15]; 19,606, 24 h): 16 µg/mL
- MBC ([16]; 24 h): 8 µg/mL
- MBC ([17]; 24 h): 8 µg/mL
- MBC (MDRAB clinical strain K2; 24 h): 16 µg/mL
- MBC ([18]; 24 h): 8 µg/mL
- MBC ([19]; 24 h): 8 µg/mL
- MBC ([20]; 24 h): 8 µg/mL
- MBC ([21]; 24 h): 8 µg/mL
- MBC ([22]; 24 h): 16 µg/mL
- MBC ([23]; 24 h): 8 µg/mL
- MBC ([24]; 24 h): 32 µg/mL

Substance: ILGPVLSMVGSALGGLIKKI-NH2 [Maximin H2]
- MIC (MDRAB clinical strains; range over MDRAB clinical strains (details in Supplementary Table 2), broth microdilution, LB, 24 h 37 °C): 16 to 128 µg/mL
- MBC (MDRAB clinical strains; range over MDRAB clinical strains (details in Supplementary Table 2), subculture on LB agar, 24 h 37 °C): 16 to 128 µg/mL
- MIC ([2]; strain AE6, broth microdilution, LB, 24 h 37 °C): 128 µg/mL
- MBC ([2]; strain AE6, subculture on LB agar, 24 h 37 °C): 128 µg/mL
- MIC ([3]; strain AF12, broth microdilution, LB, 24 h 37 °C): 64 µg/mL
- MBC ([3]; strain AF12, subculture on LB agar, 24 h 37 °C): 64 µg/mL
- MIC ([4]; strain U80, broth microdilution, LB, 24 h 37 °C): 128 µg/mL
- MBC ([4]; strain U80, subculture on LB agar, 24 h 37 °C): 128 µg/mL
- MIC ([5]; strain AK29, broth microdilution, LB, 24 h 37 °C): 32 µg/mL
- MBC ([5]; strain AK29, subculture on LB agar, 24 h 37 °C): 32 µg/mL
- MBC [6, 25]: 128 µg/mL
- MIC ([6]; broth microdilution (CLSI, modified), LB medium, 5 × 10^5 CFU/mL, 24 h at 37 °C, lowest concentration with no visible growth, triplicate): 64 µg/mL
- MIC ([7]; strain AE5, broth microdilution, LB, 24 h 37 °C): 64 µg/mL
- MBC ([7]; strain AE5, subculture on LB agar, 24 h 37 °C): 128 µg/mL
- MIC ([8]; strain O59, broth microdilution, LB, 24 h 37 °C): 128 µg/mL
- MBC ([8]; strain O59, subculture on LB agar, 24 h 37 °C): 128 µg/mL
- MIC ([9]; strain U95, broth microdilution, LB, 24 h 37 °C): 128 µg/mL
- MBC ([9]; strain U95, subculture on LB agar, 24 h 37 °C): 128 µg/mL
- MIC ([10]; strain AN10, broth microdilution, LB, 24 h 37 °C): 64 µg/mL
- MBC ([10]; strain AN10, subculture on LB agar, 24 h 37 °C): 64 µg/mL
- MIC ([11]; strain AO80, broth microdilution, LB, 24 h 37 °C): 64 µg/mL
- MBC ([11]; strain AO80, subculture on LB agar, 24 h 37 °C): 128 µg/mL
- MIC ([12]; strain W11, broth microdilution, LB, 24 h 37 °C): 64 µg/mL
- MBC ([12]; strain W11, subculture on LB agar, 24 h 37 °C): 128 µg/mL
- MIC ([13]; strain J49, broth microdilution, LB, 24 h 37 °C): 16 µg/mL
- MBC ([13]; strain J49, subculture on LB agar, 24 h 37 °C): 16 µg/mL
- MIC ([14]; strain D29, broth microdilution, LB, 24 h 37 °C): 128 µg/mL
- MBC ([14]; strain D29, subculture on LB agar, 24 h 37 °C): 128 µg/mL
- MBC [15, 25]: 32 µg/mL
- MIC ([15]; broth microdilution (CLSI, modified), LB medium, 5 × 10^5 CFU/mL, 24 h at 37 °C, triplicate): 32 µg/mL
- MIC ([16]; strain AF93, broth microdilution, LB, 24 h 37 °C): 64 µg/mL
- MBC ([16]; strain AF93, subculture on LB agar, 24 h 37 °C): 64 µg/mL
- MIC ([17]; strain Y92, broth microdilution, LB, 24 h 37 °C): 64 µg/mL
- MBC ([17]; strain Y92, subculture on LB agar, 24 h 37 °C): 128 µg/mL
- MIC (MDRAB clinical strain K2; strain K2, broth microdilution, LB, 24 h 37 °C): 16 µg/mL
- MBC (MDRAB clinical strain K2; strain K2, subculture on LB agar, 24 h 37 °C): 32 µg/mL
- MIC ([18]; strain AG51, broth microdilution, LB, 24 h 37 °C): 32 µg/mL
- MBC ([18]; strain AG51, subculture on LB agar, 24 h 37 °C): 64 µg/mL
- MIC ([19]; strain AK61, broth microdilution, LB, 24 h 37 °C): 64 µg/mL
- MBC ([19]; strain AK61, subculture on LB agar, 24 h 37 °C): 64 µg/mL
- MIC ([20]; strain AL87, broth microdilution, LB, 24 h 37 °C): 64 µg/mL
- MBC ([20]; strain AL87, subculture on LB agar, 24 h 37 °C): 64 µg/mL
- MIC ([21]; strain AZ93, broth microdilution, LB, 24 h 37 °C): 64 µg/mL
- MBC ([21]; strain AZ93, subculture on LB agar, 24 h 37 °C): 64 µg/mL
- MIC ([22]; strain AF11, broth microdilution, LB, 24 h 37 °C): 128 µg/mL
- MBC ([22]; strain AF11, subculture on LB agar, 24 h 37 °C): 128 µg/mL
- MIC ([23]; strain AS40, broth microdilution, LB, 24 h 37 °C): 64 µg/mL
- MBC ([23]; strain AS40, subculture on LB agar, 24 h 37 °C): 64 µg/mL
- MIC ([24]; strain L87, broth microdilution, LB, 24 h 37 °C): 128 µg/mL
- MBC ([24]; strain L87, subculture on LB agar, 24 h 37 °C): 128 µg/mL

Substance: KQFRIRVRV [Peptide 1029, antimicrobial peptide]
- antimicrobial activity against Acinetobacter baumannii (inhibition zone assay) [1]: without antimicrobial activity (The antimicrobial peptides without antimicrobial activity)

Substance: KRFRIRVRV [Peptide 1037, antimicrobial peptide]
- antimicrobial activity against Acinetobacter baumannii (inhibition zone assay) [1]: without antimicrobial activity (The antimicrobial peptides without antimicrobial activity)
